Format in all cases: cell-based
Assay [1] has as its target T1, ΔF508-CFTR (Homo sapiens, UniProt P13569, DEL508-508).
T1 construct: host or cells: CFBE41o-, doxycycline-inducible
As to the kind of experiment: CFTR cell surface levels using HRP-tagged ΔF508-CFTR expressing CFBE cells, intrinsic corrector capacity. The following applies: HRP-tagged ΔF508-CFTR expressing CFBE41o- cells, compound alone (intrinsic corrector capacity), 20 hours at 33° C.; for EC50: read-out: EC50. Further details: % Activation: concentration or dose not given beside the values. The procedure, abridged:
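Surface ΔF508-CFTR was measured as HRP chemiluminescence from an extracellular-loop-4 tag, expressed as percent activity between DMSO and a […] corrector control.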

A further assay addresses T2, CFTR ΔF508 (Homo sapiens, UniProt P13569, DEL508-508).
T2 construct: bronchial epithelial cells isolated from CF patients homozygous for the CFTR ΔF508 mutation; McGill University; Asterand; University of North Carolina hAEC-CF; host or cells: primary human bronchial epithelial cells from CF patients homozygous for ΔF508, differentiated at air-liquid interface
Nature of the assay: Chronic TECC assay, primary bronchial epithelial cells of CF patients homozygous for CFTR ΔF508 (corrector, co-corrector and potentiator). The note with it: chronic TECC, AUC = full area under the curve upon forskolin stimulation; for % Activity at 3 μM (AUC**): test compound at 3 μM; for % Activity at 1 μM (AUC**): test compound at 1 μM; for EC50: read-out: EC50 (nM) (AUC**). The procedure, abridged:
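Primary bronchial epithelial cells from ΔF508-homozygous CF patients on collagen IV-coated Transwells were chronically treated with test compound plus corrector and potentiator, which were re-added before recording. Ieq was derived from PD and Rt in NaCl-Ringer, pH 7.4, at 37° C, with apical amiloride and bilateral forskolin, recorded every 2 min over 20 min. Ieq increase was normalized to controls, and EC50 was taken from per-well concentrations.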

Assay [2] deals with T1, ΔF508-CFTR. As to the kind of experiment: CFTR cell surface levels using HRP-tagged ΔF508-CFTR expressing CFBE cells, in the presence of a co-corrector. The following applies: HRP-tagged ΔF508-CFTR CFBE cells, in the presence of 3 μM co-corrector; for EC50: read-out: EC50. The procedure, abridged:
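Chemiluminescent read-out of surface HRP (15 min, dark) after PBS washes. Activity is normalized as 100×(sample−DMSO)/(3 μM co-corrector alone−DMSO).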

T1 sequence (P13569 with tags, fused parts or gaps DEL508-508): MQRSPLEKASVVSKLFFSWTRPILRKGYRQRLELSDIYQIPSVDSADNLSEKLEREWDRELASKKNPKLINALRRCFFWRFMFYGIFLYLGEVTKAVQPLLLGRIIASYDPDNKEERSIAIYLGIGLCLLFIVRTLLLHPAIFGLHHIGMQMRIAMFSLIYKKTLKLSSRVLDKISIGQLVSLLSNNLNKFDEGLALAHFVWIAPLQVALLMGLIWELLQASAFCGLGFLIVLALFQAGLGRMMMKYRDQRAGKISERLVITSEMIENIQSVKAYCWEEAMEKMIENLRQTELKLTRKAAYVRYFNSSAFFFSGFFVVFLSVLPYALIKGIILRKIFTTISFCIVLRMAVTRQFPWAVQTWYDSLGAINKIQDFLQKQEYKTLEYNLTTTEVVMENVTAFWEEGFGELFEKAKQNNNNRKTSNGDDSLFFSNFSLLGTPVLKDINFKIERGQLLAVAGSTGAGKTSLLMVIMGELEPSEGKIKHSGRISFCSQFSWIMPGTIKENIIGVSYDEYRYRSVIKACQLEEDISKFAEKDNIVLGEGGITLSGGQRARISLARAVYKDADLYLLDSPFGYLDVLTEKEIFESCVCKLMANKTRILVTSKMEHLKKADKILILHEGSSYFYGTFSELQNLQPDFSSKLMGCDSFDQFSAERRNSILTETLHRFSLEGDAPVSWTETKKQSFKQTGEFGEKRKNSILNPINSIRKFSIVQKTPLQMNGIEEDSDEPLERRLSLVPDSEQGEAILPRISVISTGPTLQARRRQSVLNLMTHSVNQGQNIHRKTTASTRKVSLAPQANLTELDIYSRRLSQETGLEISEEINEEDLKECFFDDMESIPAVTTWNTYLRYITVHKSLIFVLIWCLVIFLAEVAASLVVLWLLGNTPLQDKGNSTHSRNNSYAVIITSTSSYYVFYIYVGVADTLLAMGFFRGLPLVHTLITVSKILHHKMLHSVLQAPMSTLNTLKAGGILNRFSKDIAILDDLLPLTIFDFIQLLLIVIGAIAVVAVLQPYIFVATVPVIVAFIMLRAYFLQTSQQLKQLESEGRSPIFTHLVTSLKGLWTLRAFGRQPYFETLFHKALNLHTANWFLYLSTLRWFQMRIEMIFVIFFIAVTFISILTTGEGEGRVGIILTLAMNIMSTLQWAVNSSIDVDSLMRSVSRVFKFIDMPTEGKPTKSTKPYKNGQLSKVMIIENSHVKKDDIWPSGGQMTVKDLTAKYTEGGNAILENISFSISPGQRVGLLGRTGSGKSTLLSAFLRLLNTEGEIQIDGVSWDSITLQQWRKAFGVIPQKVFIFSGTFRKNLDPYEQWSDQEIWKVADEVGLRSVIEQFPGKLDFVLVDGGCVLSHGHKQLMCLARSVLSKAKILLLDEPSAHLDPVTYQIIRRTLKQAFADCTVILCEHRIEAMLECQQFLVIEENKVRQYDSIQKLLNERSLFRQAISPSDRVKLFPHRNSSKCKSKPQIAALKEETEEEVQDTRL
T2 sequence (P13569 with tags, fused parts or gaps DEL508-508): as above

Consider `CN1CCN(S(=O)(=O)NC(=O)c2cc(N3CCC(N4CCOCC4)CC3)c3c(C4CCC4)nn(-c4ccc(F)cc4)c3n2)CC1` [Compound 624, 3-cyclobutyl-1-(4-fluorophenyl)-N-(4-methylpiperazine-1-sulfonyl)-4-[4-(morpholin-4-yl)piperidin-1-yl]-1H-pyrazolo[3,4-b]pyridine-6-carboxamide], for which, on ΔF508-CFTR [1], the “% Activation” value is recorded as 100.59% and the half-maximal effective concentration (EC50) (usually the concentration that produces a half-maximal response) was 1.2 µM. For the same compound, the “% Activity at 3 μM (AUC**)” value on CFTR ΔF508 amounted to 310%. Besides, at ΔF508-CFTR [2], the “% Activation” value turned out to be 274.15% and the 50% effective concentration (EC50) was 0.549 µM.

As to `CC(C)N1CCC2CN(c3cc(C(=O)NS(=O)(=O)N(C)C)nc4c3c(C3CCC3)nn4-c3ccc(F)cc3)CCC21` (centres unmarked) [Compound 625, 3-cyclobutyl-N-(dimethylsulfamoyl)-1-(4-fluorophenyl)-4-[1-(propan-2-yl)octahydro-5H-pyrrolo[3,2-c]pyridin-5-yl]-1H-pyrazolo[3,4-b]pyridine-6-carboxamide], the “% Activation” value on ΔF508-CFTR [1] is 182.2%; on ΔF508-CFTR [2] it was 353.87%. Further, the results for the EC50 at ΔF508-CFTR [1] and on ΔF508-CFTR [2] were 0.223 µM and 0.126 µM, respectively. At CFTR ΔF508, the “% Activity at 1 μM (AUC**)” value is given as 403.3333%.

As to `CN(C)S(=O)(=O)NC(=O)c1cc(N2CCC3C(CCN3C3CCC3)C2)c2c(C3CCC3)nn(-c3ccc(F)cc3)c2n1` (centres unmarked) [Compound 626, 3-cyclobutyl-4-(1-cyclobutyloctahydro-5H-pyrrolo[3,2-c]pyridin-5-yl)-N-(dimethylsulfamoyl)-1-(4-fluorophenyl)-1H-pyrazolo[3,4-b]pyridine-6-carboxamide], on ΔF508-CFTR [1], the “% Activation” value amounted to 206.6% and the EC50 stood at 0.151 µM. Moreover, the “% Activity at 3 μM (AUC**)” value at CFTR ΔF508 was 387.4854%. Also, on ΔF508-CFTR [2], the “% Activation” value is 418.4% and the EC50 is 0.111 µM.

For `CN(C)S(=O)(=O)NC(=O)c1cc(N2CCC3C(CCN3C3COC3)C2)c2c(C3CCC3)nn(-c3ccc(F)cc3)c2n1` (centres unmarked) [Compound 627, 3-cyclobutyl-N-(dimethylsulfamoyl)-1-(4-fluorophenyl)-4-[1-(oxetan-3-yl)octahydro-5H-pyrrolo[3,2-c]pyridin-5-yl]-1H-pyrazolo[3,4-b]pyridine-6-carboxamide], at ΔF508-CFTR [1], the “% Activation” value worked out at 162.47% and the 50% effective concentration (EC50) was found to be 0.0823 µM. Moreover, the “% Activity at 3 μM (AUC**)” value at CFTR ΔF508 was found to be 446.6667%. Moreover, at ΔF508-CFTR [2], the “% Activation” value is 348.57% and the EC50 amounted to 0.0248 µM.

Regarding `CN(C)S(=O)(=O)NC(=O)c1cc(N2CCC3C(CCN3C3CCOCC3)C2)c2c(C3CCC3)nn(-c3ccc(F)cc3)c2n1` (centres unmarked) [Compound 628, 3-cyclobutyl-N-(dimethylsulfamoyl)-1-(4-fluorophenyl)-4-[1-(oxan-4-yl)octahydro-5H-pyrrolo[3,2-c]pyridin-5-yl]-1H-pyrazolo[3,4-b]pyridine-6-carboxamide], at ΔF508-CFTR [1], the “% Activation” value was 283.25% and the EC50 came out at 0.425 µM. Moreover, on CFTR ΔF508, the EC50 worked out at 88.4 nM and the “% Activity at 3 μM (AUC**)” value is reported as 473.0586%. Moreover, at ΔF508-CFTR [2], the “% Activation” value came to 477.32% and the EC50 came out at 0.132 µM.

As to `CNS(=O)(=O)NC(=O)c1cc(N2CCC(N3CCC(OC)CC3)CC2)c2c(C3CCC3)nn(-c3ccc(F)cc3)c2n1` [Compound 629, 3-cyclobutyl-1-(4-fluorophenyl)-4-(4-methoxy[1,4'-bipiperidin]-1'-yl)-N-(methylsulfamoyl)-1H-pyrazolo[3,4-b]pyridine-6-carboxamide], the figures for the “% Activation” value at ΔF508-CFTR [1] and at ΔF508-CFTR [2] were 337.34% and 546.75%, respectively. Also, the EC50 at ΔF508-CFTR [1] was determined as 0.517 µM; on CFTR ΔF508, 6.85 nM; at ΔF508-CFTR [2], 0.267 µM. Further, the “% Activity at 3 μM (AUC**)” value on CFTR ΔF508 was 153.3918%.

With `COC1CCN(C2CCN(c3cc(C(=O)NS(N)(=O)=O)nc4c3c(C3CCC3)nn4-c3ccc(F)cc3)CC2)CC1` [Compound 630, 3-cyclobutyl-1-(4-fluorophenyl)-4-(4-methoxy[1,4'-bipiperidin]-1'-yl)-N-sulfamoyl-1H-pyrazolo[3,4-b]pyridine-6-carboxamide], on ΔF508-CFTR [1], the “% Activation” value worked out at 339.64% and the EC50 turned out to be 0.739 µM. For the same compound, on CFTR ΔF508, the 50% effective concentration (EC50) turned out to be 47.1 nM and the “% Activity at 1 μM (AUC**)” value is 125.1944%. Further, on ΔF508-CFTR [2], the “% Activation” value is 593.42% and the concentration giving a half-maximal response (EC50) came out at 0.375 µM.

On to `COC1CCN(C2CCN(c3cc(C(=O)NS(=O)(=O)N4CCC4)nc4c3c(C3CCC3)nn4-c3ccc(F)cc3)CC2)CC1` [Compound 632, N-(azetidine-1-sulfonyl)-3-cyclobutyl-1-(4-fluorophenyl)-4-(4-methoxy[1,4'-bipiperidin]-1'-yl)-1H-pyrazolo[3,4-b]pyridine-6-carboxamide], for which, on ΔF508-CFTR [1], the “% Activation” value came to 252.75% and the EC50 turned out to be 0.304 µM. Also, on CFTR ΔF508, the EC50 came out at 29.3 nM and the “% Activity at 3 μM (AUC**)” value was determined as 237.1158%. In addition, at ΔF508-CFTR [2], the “% Activation” value turned out to be 466.83% and the EC50 worked out at 0.154 µM.

Turning to `CC(C)Oc1nn(C2CCCCC2)c2nc(C(=O)NS(C)(=O)=O)cc(-c3ccc(CN4CC(N(C)C)C4)cc3)c12` [Compound 633, 1-cyclohexyl-4-(4-{[3-(dimethylamino)azetidin-1-yl]methyl}phenyl)-N-(methanesulfonyl)-3-[(propan-2-yl)oxy]-1H-pyrazolo[3,4-b]pyridine-6-carboxamide], the “% Activation” value amounted to 180.46% at ΔF508-CFTR [1] and 400.44% at ΔF508-CFTR [2]. For the same compound, the 50% effective concentration (EC50) turned out to be 0.345 µM on ΔF508-CFTR [1], 204 nM at CFTR ΔF508 and 0.207 µM at ΔF508-CFTR [2].

In the case of `CC(C)Oc1nn(C2CCCCC2)c2nc(C(=O)NS(C)(=O)=O)cc(-c3ccc(CN4CCN(C(C)C)CC4)cc3)c12` [Compound 634, 1-cyclohexyl-N-(methanesulfonyl)-3-[(propan-2-yl)oxy]-4-(4-{[4-(propan-2-yl)piperazin-1-yl]methyl}phenyl)-1H-pyrazolo[3,4-b]pyridine-6-carboxamide], the figures for the “% Activation” value on ΔF508-CFTR [1] and on ΔF508-CFTR [2] were 227.46% and 439.44%, respectively. For the same compound, the EC50 at ΔF508-CFTR [1] worked out at 0.2 µM; on CFTR ΔF508, 138 nM; at ΔF508-CFTR [2], 0.0788 µM.

On to `CNS(=O)(=O)NC(=O)c1cc(N2CCC(N3CCN(C(C)C)CC3)CC2)c2c(C3CCC3)nn(-c3ccc(F)cc3)c2n1` [Compound 638, 3-cyclobutyl-1-(4-fluorophenyl)-N-(methylsulfamoyl)-4-{4-[4-(propan-2-yl)piperazin-1-yl]piperidin-1-yl}-1H-pyrazolo[3,4-b]pyridine-6-carboxamide], for which the entries for the “% Activation” value on ΔF508-CFTR [1] and on ΔF508-CFTR [2] were 398.98% and 606.08%, respectively. The 50% effective concentration (EC50) came out at 0.241 µM on ΔF508-CFTR [1], 11.2 nM at CFTR ΔF508 and 0.095 µM at ΔF508-CFTR [2]. In addition, the “% Activity at 3 μM (AUC**)” value on CFTR ΔF508 turned out to be 341.3493%.

Regarding `COC1CCN(C2CCN(c3cc(C(=O)NS(=O)(=O)N4CC(OC)C4)nc4c3c(C3CCC3)nn4-c3ccc(F)cc3)CC2)CC1` [Compound 645, 3-cyclobutyl-1-(4-fluorophenyl)-N-(3-methoxyazetidine-1-sulfonyl)-4-(4-methoxy[1,4'-bipiperidin]-1'-yl)-1H-pyrazolo[3,4-b]pyridine-6-carboxamide], at ΔF508-CFTR [1], the “% Activation” value was 194.33% and the EC50 came to 0.331 µM. In addition, the “% Activity at 3 μM (AUC**)” value at CFTR ΔF508 amounted to 246.4648%. On ΔF508-CFTR [2], the “% Activation” value is 384.37% and the 50% effective concentration (EC50) was found to be 0.244 µM.

Consider `COC1CCN(C2CCN(c3cc(C(=O)NS(=O)(=O)N4CC(F)C4)nc4c3c(C3CCC3)nn4-c3ccc(F)cc3)CC2)CC1` [Compound 646, 3-cyclobutyl-N-(3-fluoroazetidine-1-sulfonyl)-1-(4-fluorophenyl)-4-(4-methoxy[1,4'-bipiperidin]-1'-yl)-1H-pyrazolo[3,4-b]pyridine-6-carboxamide], for which, at ΔF508-CFTR [1], the “% Activation” value is given as 236.13% and the EC50 was 0.4 µM. Besides, at CFTR ΔF508, the concentration giving a half-maximal response (EC50) is 23.5 nM and the “% Activity at 3 μM (AUC**)” value turned out to be 276.7167%. Also, on ΔF508-CFTR [2], the “% Activation” value is listed as 447.9% and the concentration for a half-maximal effect (EC50) was determined as 0.259 µM.

On to `COC1CCN(C2CCN(c3cc(C(=O)NS(=O)(=O)N4CCOCC4)nc4c3c(C3CCC3)nn4-c3ccc(F)cc3)CC2)CC1` [Compound 647, 3-cyclobutyl-1-(4-fluorophenyl)-4-(4-methoxy[1,4'-bipiperidin]-1'-yl)-N-(morpholine-4-sulfonyl)-1H-pyrazolo[3,4-b]pyridine-6-carboxamide], for which, at ΔF508-CFTR [1], the “% Activation” value is 164.47% and the 50% effective concentration (EC50) was determined as 0.216 µM. On CFTR ΔF508, the EC50 was 151 nM and the “% Activity at 3 μM (AUC**)” value was 420.0246%. Moreover, on ΔF508-CFTR [2], the “% Activation” value is reported as 337.07% and the EC50 was determined as 0.112 µM.

(Values after patent US10259810B2, “N-sulfonylated pyrazolo[3,4-b]pyridin-6-carboxamides and method of use” (AbbVie S.à.r.l., priority 2015, dated 2019).)
